Experimental data published in US10072006B2 (MUTABILIS, priority 2015, dated 2018).
pIC50: −log10 of the molar value. In brackets after ≈: the same amount, converted by molar mass.

Assays:
[1] = target: T1, CTX-M-15 (Escherichia coli, UniProt Q9EXV5); assay: β-lactamase inhibitory activity, determination of IC50 (nitrocefin hydrolysis); format: biochemical
T1 construct: made in house; host or cells: E. coli

[2] = target: T2, KPC-2 (Klebsiella pneumoniae, UniProt Q9F663); assay: as above; format: biochemical
T2 construct: made in house; host or cells: E. coli
T2 sequence (Q9F663 25-293 limits assumed): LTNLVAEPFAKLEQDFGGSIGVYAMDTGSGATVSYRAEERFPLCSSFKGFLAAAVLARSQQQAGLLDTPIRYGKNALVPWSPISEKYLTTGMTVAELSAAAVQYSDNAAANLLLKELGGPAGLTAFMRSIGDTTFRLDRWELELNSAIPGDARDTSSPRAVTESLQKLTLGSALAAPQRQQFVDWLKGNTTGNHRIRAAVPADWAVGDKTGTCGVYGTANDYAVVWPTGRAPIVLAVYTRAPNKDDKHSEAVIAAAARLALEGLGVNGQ

[3] = target: T3, OXA-11 (Pseudomonas aeruginosa, UniProt Q06778); assay: as above; format: biochemical
T3 construct: made in house; host or cells: E. coli
T3 sequence (Q06778 21-266): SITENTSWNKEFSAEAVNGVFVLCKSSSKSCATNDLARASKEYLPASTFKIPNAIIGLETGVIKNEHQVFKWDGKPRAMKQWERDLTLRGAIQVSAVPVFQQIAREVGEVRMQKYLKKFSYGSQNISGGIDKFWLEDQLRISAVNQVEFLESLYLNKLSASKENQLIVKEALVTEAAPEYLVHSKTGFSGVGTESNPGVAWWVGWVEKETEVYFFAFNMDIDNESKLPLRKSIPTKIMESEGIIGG

[4] = system: E. coli 190317 (TEM-1, SHV-12, CTX-M-15, OXA-1); assay: microbe, parasite or virus in culture; format: cell-based
Procedure: (§1) Briefly, compounds alone according to the invention were prepared in DMSO and spotted (2 μL each) on sterile polystyrene plates (Corning, 3788). […] Microplates were incubated for 16-20 h at 35° C. in ambient air. The MIC of the compounds was defined as the lowest concentration of said compounds that prevented bacterial growth as read by visual inspection.

[5] = target: T4, TEM-1 (Escherichia coli, UniProt P62593); assay: β-lactamase inhibitory activity, determination of IC50 (nitrocefin hydrolysis); format: biochemical; settings: class (A), 30 min pre-incubation
T4 construct: made in house; host or cells: E. coli
T4 sequence (P62593 24-286 limits assumed): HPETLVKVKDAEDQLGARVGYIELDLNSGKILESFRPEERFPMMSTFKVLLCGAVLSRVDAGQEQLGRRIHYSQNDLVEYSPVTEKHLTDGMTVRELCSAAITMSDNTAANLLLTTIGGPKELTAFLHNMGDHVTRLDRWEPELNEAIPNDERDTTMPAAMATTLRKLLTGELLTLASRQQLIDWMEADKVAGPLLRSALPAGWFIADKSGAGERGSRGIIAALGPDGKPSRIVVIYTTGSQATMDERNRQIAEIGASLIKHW

[6] = target: T5, OXA-15 (Pseudomonas aeruginosa, UniProt Q51574); assay: as above; format: biochemical
T5 construct: made in house; host or cells: E. coli
T5 sequence (Q51574 22-275): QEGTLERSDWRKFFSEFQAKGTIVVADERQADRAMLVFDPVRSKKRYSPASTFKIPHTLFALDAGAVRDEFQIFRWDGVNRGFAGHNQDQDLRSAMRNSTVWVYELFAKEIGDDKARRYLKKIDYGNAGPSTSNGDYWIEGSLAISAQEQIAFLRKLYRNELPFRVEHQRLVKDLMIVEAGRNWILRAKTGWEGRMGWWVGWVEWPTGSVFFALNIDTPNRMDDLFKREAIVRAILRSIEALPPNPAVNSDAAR

[7] = target: T6, OXA-48 (Klebsiella pneumoniae, UniProt Q6XEC0); assay: as above; format: biochemical
T6 construct: made in house; host or cells: E. coli
T6 sequence (Q6XEC0 23-265 limits assumed): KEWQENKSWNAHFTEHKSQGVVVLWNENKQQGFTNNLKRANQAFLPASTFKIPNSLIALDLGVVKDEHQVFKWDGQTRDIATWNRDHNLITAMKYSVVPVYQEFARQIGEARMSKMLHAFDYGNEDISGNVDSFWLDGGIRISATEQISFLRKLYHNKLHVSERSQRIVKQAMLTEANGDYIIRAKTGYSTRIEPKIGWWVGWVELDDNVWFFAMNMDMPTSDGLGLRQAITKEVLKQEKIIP

[8] = target: T7, SHV-1 (Klebsiella pneumoniae, UniProt P0AD64); assay: as above; format: biochemical
T7 construct: made in house; host or cells: E. coli
T7 sequence (P0AD64 22-286): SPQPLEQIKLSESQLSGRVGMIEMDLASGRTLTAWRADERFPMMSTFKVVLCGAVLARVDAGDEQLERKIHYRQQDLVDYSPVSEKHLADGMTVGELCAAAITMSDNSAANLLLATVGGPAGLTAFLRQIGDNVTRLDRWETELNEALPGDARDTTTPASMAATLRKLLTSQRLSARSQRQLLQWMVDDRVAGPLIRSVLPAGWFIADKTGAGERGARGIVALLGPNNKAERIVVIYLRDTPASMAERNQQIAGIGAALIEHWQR

[9] = system: P. aeruginosa CIP107051 (TEM-24); assay: MIC of compounds and synergy with ceftazidime (broth microdilution); format: cell-based
Procedure: as §1

[10] = system: K. pneumoniae BAA-1898 (TEM-1, SHV-11, SHV-12, KPC-2); assay: as above; format: cell-based
Procedure: as §1

[11] = system: P. aeruginosa UFR47 (VIM-1); assay: as above; format: cell-based
Procedure: as §1

[12] = system: P. aeruginosa UFR48 (VIM-2); assay: as above; format: cell-based
Procedure: as §1

[13] = system: P. aeruginosa UFR90 (Derepressed ampC, OprD-); assay: as above; format: cell-based
Procedure: as §1

[14] = system: P. aeruginosa UFR93 (Derepressed ampC, OprD-, MexAB+, MexXY+); assay: as above; format: cell-based
Procedure: as §1

[15] = system: E. coli 131119 (TEM-1, OXA-48); assay: as above; format: cell-based; settings: Escherichia coli, 18 h, read-out: MIC compounds of the invention alone
Procedure: as §1

[16] = system: P. aeruginosa UFR35 (OXA-23); assay: as above; format: cell-based
Procedure: as §1

[17] = system: E. coli RGN238 (OXA-1); assay: as above; format: cell-based; settings: Escherichia coli, 18 h, read-out: MIC compounds of the invention alone
Procedure: as §1

[18] = system: E. cloacae P99 (Derepressed ampC); assay: as above; format: cell-based
Procedure: as §1

[19] = system: P. aeruginosa CIP105250 (OXA-15); assay: as above; format: cell-based
Procedure: as §1

[20] = system: K. pneumoniae 6299 (TEM-1, SHV-11, OXA-163); assay: as above; format: cell-based
Procedure: as §1

[21] = system: P. aeruginosa UFR59 (IMP-29); assay: as above; format: cell-based
Procedure: as §1

[22] = system: P. aeruginosa UFR92 (Derepressed ampC, OprD-); assay: as above; format: cell-based
Procedure: as §1

[23] = target: T8, OXA-1 (Escherichia coli, UniProt P13661); assay: β-lactamase inhibitory activity, determination of IC50 (nitrocefin hydrolysis); format: biochemical
T8 construct: made in house; host or cells: E. coli
T8 sequence (P13661 26-276): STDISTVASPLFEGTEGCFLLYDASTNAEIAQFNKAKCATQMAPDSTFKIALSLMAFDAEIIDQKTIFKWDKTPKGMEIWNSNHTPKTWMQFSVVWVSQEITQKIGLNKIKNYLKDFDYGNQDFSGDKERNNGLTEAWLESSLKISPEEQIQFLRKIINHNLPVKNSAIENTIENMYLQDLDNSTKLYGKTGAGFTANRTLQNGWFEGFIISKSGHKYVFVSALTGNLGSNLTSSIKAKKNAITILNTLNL

[24] = target: AmpC (P99) (Enterobacter cloacae, UniProt P05364); assay: biochemical
AmpC (P99), sequence (P05364 21-381): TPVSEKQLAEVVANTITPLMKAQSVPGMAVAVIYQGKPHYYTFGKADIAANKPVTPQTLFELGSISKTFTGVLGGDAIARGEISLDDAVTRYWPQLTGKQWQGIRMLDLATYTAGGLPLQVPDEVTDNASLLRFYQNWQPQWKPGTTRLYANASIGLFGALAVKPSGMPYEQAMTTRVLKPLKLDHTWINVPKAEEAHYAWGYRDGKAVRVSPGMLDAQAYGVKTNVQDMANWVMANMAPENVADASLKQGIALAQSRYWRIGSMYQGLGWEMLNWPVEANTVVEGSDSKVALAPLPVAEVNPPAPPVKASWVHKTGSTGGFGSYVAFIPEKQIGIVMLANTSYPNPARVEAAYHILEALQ

[25] = target: AmpC (PAE) (Pseudomonas aeruginosa, UniProt P24735); assay: biochemical
AmpC (PAE), sequence (P24735 27-397): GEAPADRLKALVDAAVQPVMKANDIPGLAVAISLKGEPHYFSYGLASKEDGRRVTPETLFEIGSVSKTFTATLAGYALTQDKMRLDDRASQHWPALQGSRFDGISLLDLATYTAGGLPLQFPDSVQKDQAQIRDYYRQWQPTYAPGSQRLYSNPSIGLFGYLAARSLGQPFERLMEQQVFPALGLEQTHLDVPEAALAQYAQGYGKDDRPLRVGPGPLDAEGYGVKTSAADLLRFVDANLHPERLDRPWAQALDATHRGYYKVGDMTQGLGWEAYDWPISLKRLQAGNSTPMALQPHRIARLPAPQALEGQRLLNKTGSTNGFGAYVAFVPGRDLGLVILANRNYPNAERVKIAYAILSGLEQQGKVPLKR

[26] = Pseudomonas aeruginosa, 18 h, read-out: MIC compounds of the invention alone

T1 sequence (Q9EXV5 entry or part of it): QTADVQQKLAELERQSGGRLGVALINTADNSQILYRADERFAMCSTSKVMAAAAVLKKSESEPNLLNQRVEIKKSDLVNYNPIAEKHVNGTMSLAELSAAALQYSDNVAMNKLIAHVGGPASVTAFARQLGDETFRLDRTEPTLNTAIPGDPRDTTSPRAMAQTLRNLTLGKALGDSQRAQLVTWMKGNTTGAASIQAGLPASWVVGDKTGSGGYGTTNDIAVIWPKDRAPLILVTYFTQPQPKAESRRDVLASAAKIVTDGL

NC[C@@H]1C=C(c2cnco2)[C@@H]2CN1C(=O)N2OC(F)(F)C(=O)O (relative stereo) [Example 3, lithium and 2,2,2-trifluoroacetate [trans-2-(azaniumylmethyl)-4-oxazol-5-yl-7-oxo-1,6-diazabicyclo[3.2.1]oct-3-en-6-yl]oxy]-2,2-difluoro-acetate]
pIC50 [1]: 8.70 | pIC50 [2]: 7.48 | pIC50 [3]: 7.32 | MIC ([4]; Escherichia coli, 18 h, read-out: MIC compounds of the invention alone): 0.25 mg/L (≈ 0.757 µM) | MIC, combination of CAZ and compounds of the invention ([4]; MIC of ceftazidime with compound fixed at 4 μg/mL, strain 190317 (E. coli)): <0.125 mg/L | pIC50 [5]: 8.52 | pIC50 [6]: 8.80 | pIC50 [7]: 8.24 | pIC50 [8]: 8.34 | MIC, combination of CAZ and compounds of the invention ([9]; MIC of ceftazidime with compound fixed at 4 μg/mL, strain CIP107051 (P. aeruginosa)): ≤0.25 mg/L | MIC ([9]; Pseudomonas aeruginosa, CIP107051, 18 h, read-out: MIC compounds of the invention alone): 16 mg/L | MIC ([10]; Klebsiella pneumoniae, BAA1898, read-out: MIC compounds of the invention alone): > 32 mg/L | MIC, combination of CAZ and compounds of the invention ([10]; MIC of ceftazidime with compound fixed at 4 μg/mL, strain BAA-1898 (K. pneumoniae)): 1 mg/L | MIC, combination of CAZ and compounds of the invention ([11]; MIC of ceftazidime with compound fixed at 4 μg/mL, strain UFR47 (P. aeruginosa)): <0.25 mg/L | MIC [11, 26]: 4 mg/L | MIC, combination of CAZ and compounds of the invention ([12]; MIC of ceftazidime with compound fixed at 4 μg/mL, strain UFR48 (P. aeruginosa)): 16 mg/L | MIC [12, 26]: 8 mg/L | MIC, combination of CAZ and compounds of the invention ([13]; MIC of ceftazidime with compound fixed at 4 μg/mL, strain UFR90 (P. aeruginosa)): <0.25 mg/L | MIC [13, 26]: 1 mg/L | MIC, combination of CAZ and compounds of the invention ([14]; MIC of ceftazidime with compound fixed at 4 μg/mL, strain UFR93 (P. aeruginosa)): 0.5 mg/L | MIC [14, 26]: 16 mg/L | MIC [15]: 0.5 mg/L | MIC, combination of CAZ and compounds of the invention ([16]; MIC of ceftazidime with compound fixed at 4 μg/mL, strain UFR35 (P. aeruginosa)): <0.25 mg/L | MIC [16, 26]: 2 mg/L | MIC [17]: > 32 mg/L | MIC ([18]; Enterobacter cloacae, 18 h, read-out: MIC compounds of the invention alone): 0.063 mg/L | MIC, combination of CAZ and compounds of the invention ([18]; MIC of ceftazidime with compound fixed at 4 μg/mL, strain P99 (E. cloacae)): <0.125 mg/L | MIC, combination of CAZ and compounds of the invention ([19]; MIC of ceftazidime with compound fixed at 4 μg/mL, strain CIP105250 (P. aeruginosa)): 8 mg/L | MIC ([19]; Pseudomonas aeruginosa, CIP105250, 18 h, read-out: MIC compounds of the invention alone): > 32 mg/L | MIC ([20]; Klebsiella pneumoniae, 18 h, read-out: MIC compounds of the invention alone): > 32 mg/L | MIC, combination of CAZ and compounds of the invention ([20]; MIC of ceftazidime with compound fixed at 4 μg/mL, strain 6299 (K. pneumoniae)): 1 mg/L | MIC, combination of CAZ and compounds of the invention ([21]; MIC of ceftazidime with compound fixed at 4 μg/mL, strain UFR59 (P. aeruginosa)): 2 mg/L | MIC [21, 26]: 16 mg/L | MIC, combination of CAZ and compounds of the invention ([22]; MIC of ceftazidime with compound fixed at 4 μg/mL, strain UFR92 (P. aeruginosa)): ≤0.25 mg/L | MIC [22, 26]: 8 mg/L | pIC50 [23]: 7.77 | pIC50 [24]: 8.13 | pIC50 [25]: 6.66
